Measured values published in BindingDB's records for PubMed 35688004 (University of Hradec Kralove, 2022).

Experiments:
[1] = biological target: Phosphatidylinositol 4,5-bisphosphate 3-kinase catalytic subunit beta isoform (Homo sapiens, UniProt P42338); assay: Inhibition of human PI3Kbeta preincubated for 15 mins followed by ATP addition measured after 1 hr by TR-FRET assay
[2] = biological target: Phosphatidylinositol 4,5-bisphosphate 3-kinase catalytic subunit alpha isoform (Homo sapiens, UniProt P42336); assay: Inhibition of human PI3Kalpha preincubated for 15 mins followed by ATP addition measured after 1 hr by TR-FRET assay
[3] = biological target: Phosphatidylinositol 4,5-bisphosphate 3-kinase catalytic subunit gamma isoform (Homo sapiens, UniProt P48736); assay: Inhibition of human PI3Kgamma preincubated for 15 mins followed by ATP addition measured after 1 hr by TR-FRET assay
Phosphatidylinositol 4,5-bisphosphate 3-kinase catalytic subunit gamma isoform, sequence (P48736 whole entry, canonical isoform): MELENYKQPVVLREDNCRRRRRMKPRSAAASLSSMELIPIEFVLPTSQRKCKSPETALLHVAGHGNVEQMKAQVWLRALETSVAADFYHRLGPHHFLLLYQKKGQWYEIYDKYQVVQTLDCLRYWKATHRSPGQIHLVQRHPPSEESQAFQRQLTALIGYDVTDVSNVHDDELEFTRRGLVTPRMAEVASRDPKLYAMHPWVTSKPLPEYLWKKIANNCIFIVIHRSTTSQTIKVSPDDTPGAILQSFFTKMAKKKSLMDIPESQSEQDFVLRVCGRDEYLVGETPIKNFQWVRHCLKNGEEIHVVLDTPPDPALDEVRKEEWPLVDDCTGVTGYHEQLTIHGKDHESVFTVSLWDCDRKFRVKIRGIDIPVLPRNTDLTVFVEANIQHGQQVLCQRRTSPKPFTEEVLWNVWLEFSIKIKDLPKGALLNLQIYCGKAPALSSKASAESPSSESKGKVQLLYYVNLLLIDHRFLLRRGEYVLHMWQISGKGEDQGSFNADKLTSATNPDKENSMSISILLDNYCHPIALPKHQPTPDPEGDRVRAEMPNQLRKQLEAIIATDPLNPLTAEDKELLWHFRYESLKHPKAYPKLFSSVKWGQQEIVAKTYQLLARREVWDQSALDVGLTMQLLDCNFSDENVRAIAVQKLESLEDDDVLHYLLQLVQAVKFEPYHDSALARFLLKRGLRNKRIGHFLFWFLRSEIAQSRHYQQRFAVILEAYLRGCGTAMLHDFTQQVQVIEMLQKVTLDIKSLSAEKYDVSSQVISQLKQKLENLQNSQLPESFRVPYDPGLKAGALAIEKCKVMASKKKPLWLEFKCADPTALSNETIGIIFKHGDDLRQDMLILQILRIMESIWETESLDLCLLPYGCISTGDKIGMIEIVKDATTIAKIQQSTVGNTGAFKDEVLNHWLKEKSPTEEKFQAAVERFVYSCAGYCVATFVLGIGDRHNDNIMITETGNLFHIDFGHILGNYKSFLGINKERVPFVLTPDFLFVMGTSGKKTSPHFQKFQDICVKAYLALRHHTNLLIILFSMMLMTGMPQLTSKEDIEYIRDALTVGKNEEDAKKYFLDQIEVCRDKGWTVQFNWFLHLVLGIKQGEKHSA

Phosphatidylinositol 4,5-bisphosphate 3-kinase catalytic subunit beta isoform, sequence (P42338 whole entry, canonical isoform): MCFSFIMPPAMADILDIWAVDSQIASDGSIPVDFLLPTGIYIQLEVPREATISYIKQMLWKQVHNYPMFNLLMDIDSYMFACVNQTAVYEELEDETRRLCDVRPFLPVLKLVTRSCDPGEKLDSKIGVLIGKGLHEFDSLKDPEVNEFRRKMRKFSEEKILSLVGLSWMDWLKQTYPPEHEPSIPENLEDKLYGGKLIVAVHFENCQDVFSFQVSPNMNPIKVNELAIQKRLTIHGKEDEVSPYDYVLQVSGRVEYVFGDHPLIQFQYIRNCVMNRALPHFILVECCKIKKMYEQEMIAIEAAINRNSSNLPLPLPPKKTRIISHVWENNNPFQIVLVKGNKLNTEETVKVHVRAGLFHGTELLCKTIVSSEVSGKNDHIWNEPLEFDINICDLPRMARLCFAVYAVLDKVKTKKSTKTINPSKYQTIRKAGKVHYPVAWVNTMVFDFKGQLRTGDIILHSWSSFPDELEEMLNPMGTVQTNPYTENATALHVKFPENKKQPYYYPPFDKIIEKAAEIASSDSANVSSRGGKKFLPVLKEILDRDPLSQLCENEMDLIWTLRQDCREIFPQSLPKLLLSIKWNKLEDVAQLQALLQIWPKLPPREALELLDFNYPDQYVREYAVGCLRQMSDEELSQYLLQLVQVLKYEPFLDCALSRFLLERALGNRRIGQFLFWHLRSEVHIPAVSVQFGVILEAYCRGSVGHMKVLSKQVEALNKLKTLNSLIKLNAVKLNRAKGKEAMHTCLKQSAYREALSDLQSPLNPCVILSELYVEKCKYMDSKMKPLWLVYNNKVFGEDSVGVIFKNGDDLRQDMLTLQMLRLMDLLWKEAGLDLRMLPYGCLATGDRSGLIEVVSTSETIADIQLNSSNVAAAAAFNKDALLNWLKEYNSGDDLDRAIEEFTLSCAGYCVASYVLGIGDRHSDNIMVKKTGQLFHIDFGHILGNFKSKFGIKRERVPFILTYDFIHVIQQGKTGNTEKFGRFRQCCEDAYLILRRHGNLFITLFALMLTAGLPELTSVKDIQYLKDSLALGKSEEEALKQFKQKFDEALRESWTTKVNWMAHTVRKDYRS
Phosphatidylinositol 4,5-bisphosphate 3-kinase catalytic subunit alpha isoform, sequence (P42336 whole entry, canonical isoform): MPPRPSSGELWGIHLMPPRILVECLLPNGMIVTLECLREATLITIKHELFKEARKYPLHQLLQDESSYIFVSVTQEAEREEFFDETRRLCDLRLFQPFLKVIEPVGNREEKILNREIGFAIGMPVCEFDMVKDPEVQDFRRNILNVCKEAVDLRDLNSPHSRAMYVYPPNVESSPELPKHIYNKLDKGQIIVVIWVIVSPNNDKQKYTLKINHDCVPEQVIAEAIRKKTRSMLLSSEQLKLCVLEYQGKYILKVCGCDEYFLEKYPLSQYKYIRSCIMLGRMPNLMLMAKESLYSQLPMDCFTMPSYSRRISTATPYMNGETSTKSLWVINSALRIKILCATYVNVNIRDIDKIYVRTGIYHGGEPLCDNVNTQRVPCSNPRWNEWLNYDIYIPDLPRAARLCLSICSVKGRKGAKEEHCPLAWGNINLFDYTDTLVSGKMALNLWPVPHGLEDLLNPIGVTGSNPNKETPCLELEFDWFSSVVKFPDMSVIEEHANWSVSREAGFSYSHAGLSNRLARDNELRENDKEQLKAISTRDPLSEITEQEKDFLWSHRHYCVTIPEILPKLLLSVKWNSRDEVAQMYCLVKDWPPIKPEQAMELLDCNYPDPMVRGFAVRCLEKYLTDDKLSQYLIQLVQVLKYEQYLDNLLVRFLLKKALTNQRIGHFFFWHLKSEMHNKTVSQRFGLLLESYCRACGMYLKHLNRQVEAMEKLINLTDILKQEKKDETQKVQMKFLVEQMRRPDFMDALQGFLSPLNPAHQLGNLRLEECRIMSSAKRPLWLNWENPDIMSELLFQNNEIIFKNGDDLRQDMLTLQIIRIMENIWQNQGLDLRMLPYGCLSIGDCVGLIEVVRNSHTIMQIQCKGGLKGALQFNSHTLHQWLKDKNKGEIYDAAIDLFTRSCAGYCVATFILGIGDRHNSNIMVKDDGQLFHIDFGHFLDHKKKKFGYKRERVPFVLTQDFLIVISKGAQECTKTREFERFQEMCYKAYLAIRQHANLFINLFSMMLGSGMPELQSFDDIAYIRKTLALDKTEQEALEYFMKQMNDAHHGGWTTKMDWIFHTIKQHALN

Nc1ncnc2c1c(-c1cc3cc(O)ccc3[nH]1)nn2C1CCOCC1 [US10172858, Table 2.42]
IC50 [1]: > 500 nM
IC50 [2]: > 500 nM

Nc1ncnc2c1c(-c1cc3cccc(O)c3[nH]1)nn2C1CCOCC1 [US10172858, Table 2.62]
IC50 [1]: > 500 nM
IC50 [3]: > 500 nM
IC50 [2]: > 500 nM

COc1cccc2cc(-c3nn(C4CCOCC4)c4ncnc(N)c34)[nH]c12 [US10172858, Table 2.63]
IC50 [1]: > 500 nM

Nc1ncnc2c1c(-c1cc3cc(O)cc(Cl)c3[nH]1)nn2C1CCOCC1 [US10172858, Table 2.68]
IC50 [1]: > 500 nM

CC(=O)N1CCC(n2nc(-c3cc4c(Cl)ccc(O)c4[nH]3)c3c(N)ncnc32)CC1 [US10172858, Table 2.69]
IC50 [1]: > 500 nM
IC50 [3]: > 500 nM
IC50 [2]: > 500 nM

CC(=O)N1CCC(n2nc(-c3cc4cc(O)cc(Cl)c4[nH]3)c3c(N)ncnc32)CC1 [US10172858, Table 2.70]
IC50 [1]: > 500 nM
